Experimental data published in ChEMBL document CHEMBL1201862, “PubChem BioAssay data set” (2004).
The source made the active and inactive calls.

Assays:
[1] = target: T1, E3 ubiquitin-protein ligase XIAP (Homo sapiens, UniProt P98170); assay: XIAP antagonists, biochemical, IAP family, fluorescence polarization (AID 1018); assay type: functional
[2] = target: T1, E3 ubiquitin-protein ligase XIAP; assay: Counter Screen using XIAP-Bir3 for Chemical Antagonists of Bir1/2 domains of IAP-family anti-apoptotic proteins. [Related pubchem assays (depositor defined):AID1018, AID1449, AID1514, AID1638, AID1749, AID1750, AID488957, AID488963]
[3] = test system: P388/ADR; assay: cells; assay type: functional; conditions: Mus musculus
[4] = test system: SN12K1; assay: cells; assay type: functional; conditions: Homo sapiens
[5] = test system: P388; assay: cells; assay type: functional; conditions: Mus musculus
[6] = target: Peroxisome proliferator-activated receptor gamma/Nuclear receptor coactivator 1 (Homo sapiens, UniProt P37231); assay: TR-FRET dose response biochemical High Throughput Screening assay for agonists of the steroid receptor coactivator 1 (SRC-1) recruitment by the peroxisome proliferator-activated receptor gamma (PPAR gamma): non-selective agonists. [Related pubchem assays (depositor defined):AID1300, AID1808, AID504735, AID631]; assay type: protein assay
Chain of Peroxisome proliferator-activated receptor gamma/Nuclear receptor coactivator 1 (P37231 whole entry): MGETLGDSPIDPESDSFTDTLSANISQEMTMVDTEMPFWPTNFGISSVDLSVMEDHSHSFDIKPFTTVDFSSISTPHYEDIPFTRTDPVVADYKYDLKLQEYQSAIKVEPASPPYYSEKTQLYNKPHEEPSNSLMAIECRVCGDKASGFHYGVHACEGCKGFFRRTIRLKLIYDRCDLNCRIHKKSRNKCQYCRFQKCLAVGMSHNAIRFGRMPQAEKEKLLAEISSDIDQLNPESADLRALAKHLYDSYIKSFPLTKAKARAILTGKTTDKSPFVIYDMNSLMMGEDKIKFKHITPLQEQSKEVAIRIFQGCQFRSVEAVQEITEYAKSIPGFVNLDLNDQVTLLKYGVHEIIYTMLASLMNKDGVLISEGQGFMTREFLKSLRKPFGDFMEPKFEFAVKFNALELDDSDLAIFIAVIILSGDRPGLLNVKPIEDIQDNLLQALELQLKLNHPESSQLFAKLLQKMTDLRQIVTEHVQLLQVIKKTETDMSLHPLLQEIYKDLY
Chain of Peroxisome proliferator-activated receptor gamma/Nuclear receptor coactivator 1 (Q15788 whole entry, further chain): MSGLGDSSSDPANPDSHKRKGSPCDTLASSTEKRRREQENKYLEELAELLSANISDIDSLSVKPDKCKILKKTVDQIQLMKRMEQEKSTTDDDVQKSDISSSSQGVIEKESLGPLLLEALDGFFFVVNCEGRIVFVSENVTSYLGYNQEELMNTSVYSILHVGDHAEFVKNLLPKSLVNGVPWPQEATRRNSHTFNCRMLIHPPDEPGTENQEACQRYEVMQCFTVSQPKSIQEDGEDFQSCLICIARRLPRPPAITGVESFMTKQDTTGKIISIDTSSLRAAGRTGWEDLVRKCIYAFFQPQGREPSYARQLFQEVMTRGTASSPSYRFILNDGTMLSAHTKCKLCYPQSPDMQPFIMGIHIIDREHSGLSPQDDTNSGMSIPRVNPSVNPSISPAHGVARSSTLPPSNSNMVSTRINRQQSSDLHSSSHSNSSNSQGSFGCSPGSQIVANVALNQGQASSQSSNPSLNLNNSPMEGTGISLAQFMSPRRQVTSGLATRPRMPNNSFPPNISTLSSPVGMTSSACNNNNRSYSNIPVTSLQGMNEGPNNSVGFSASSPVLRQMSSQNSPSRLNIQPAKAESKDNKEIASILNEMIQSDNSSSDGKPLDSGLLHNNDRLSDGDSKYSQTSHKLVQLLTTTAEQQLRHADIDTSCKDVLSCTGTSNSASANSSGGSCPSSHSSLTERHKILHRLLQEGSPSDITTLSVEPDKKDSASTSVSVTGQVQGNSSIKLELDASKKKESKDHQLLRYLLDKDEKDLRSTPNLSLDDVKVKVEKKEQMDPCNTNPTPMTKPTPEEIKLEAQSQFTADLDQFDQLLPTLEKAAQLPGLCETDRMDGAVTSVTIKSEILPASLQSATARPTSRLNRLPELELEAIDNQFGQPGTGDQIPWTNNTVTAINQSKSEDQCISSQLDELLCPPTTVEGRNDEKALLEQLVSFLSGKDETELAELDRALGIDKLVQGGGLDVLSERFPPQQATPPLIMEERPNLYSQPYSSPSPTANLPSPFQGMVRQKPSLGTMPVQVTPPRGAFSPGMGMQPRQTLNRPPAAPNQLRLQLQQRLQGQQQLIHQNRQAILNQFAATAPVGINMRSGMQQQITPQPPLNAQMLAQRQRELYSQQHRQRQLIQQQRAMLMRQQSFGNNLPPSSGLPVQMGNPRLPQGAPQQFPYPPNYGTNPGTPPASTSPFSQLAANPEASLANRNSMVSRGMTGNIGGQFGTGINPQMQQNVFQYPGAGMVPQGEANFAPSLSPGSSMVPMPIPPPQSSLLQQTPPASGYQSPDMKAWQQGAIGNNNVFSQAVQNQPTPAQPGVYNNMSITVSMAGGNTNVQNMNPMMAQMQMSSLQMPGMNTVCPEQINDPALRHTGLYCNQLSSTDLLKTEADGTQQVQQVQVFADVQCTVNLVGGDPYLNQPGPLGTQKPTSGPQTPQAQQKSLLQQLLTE

[7] = target: Peroxisome proliferator-activated receptor gamma/Nuclear receptor coactivator 2 (Homo sapiens, UniProt P37231); assay: TR-FRET dose response biochemical High Throughput Screening assay for agonists of the steroid receptor coactivator 2 (SRC-2) recruitment by the peroxisome proliferator-activated receptor gamma (PPAR gamma): non-selective agonists. [Related pubchem assays: 1297, 1032 ]; assay type: functional
Chain of Peroxisome proliferator-activated receptor gamma/Nuclear receptor coactivator 2 (P37231 whole entry): as the sequence (P37231 whole entry) above
Chain of Peroxisome proliferator-activated receptor gamma/Nuclear receptor coactivator 2 (Q15596 whole entry, further chain): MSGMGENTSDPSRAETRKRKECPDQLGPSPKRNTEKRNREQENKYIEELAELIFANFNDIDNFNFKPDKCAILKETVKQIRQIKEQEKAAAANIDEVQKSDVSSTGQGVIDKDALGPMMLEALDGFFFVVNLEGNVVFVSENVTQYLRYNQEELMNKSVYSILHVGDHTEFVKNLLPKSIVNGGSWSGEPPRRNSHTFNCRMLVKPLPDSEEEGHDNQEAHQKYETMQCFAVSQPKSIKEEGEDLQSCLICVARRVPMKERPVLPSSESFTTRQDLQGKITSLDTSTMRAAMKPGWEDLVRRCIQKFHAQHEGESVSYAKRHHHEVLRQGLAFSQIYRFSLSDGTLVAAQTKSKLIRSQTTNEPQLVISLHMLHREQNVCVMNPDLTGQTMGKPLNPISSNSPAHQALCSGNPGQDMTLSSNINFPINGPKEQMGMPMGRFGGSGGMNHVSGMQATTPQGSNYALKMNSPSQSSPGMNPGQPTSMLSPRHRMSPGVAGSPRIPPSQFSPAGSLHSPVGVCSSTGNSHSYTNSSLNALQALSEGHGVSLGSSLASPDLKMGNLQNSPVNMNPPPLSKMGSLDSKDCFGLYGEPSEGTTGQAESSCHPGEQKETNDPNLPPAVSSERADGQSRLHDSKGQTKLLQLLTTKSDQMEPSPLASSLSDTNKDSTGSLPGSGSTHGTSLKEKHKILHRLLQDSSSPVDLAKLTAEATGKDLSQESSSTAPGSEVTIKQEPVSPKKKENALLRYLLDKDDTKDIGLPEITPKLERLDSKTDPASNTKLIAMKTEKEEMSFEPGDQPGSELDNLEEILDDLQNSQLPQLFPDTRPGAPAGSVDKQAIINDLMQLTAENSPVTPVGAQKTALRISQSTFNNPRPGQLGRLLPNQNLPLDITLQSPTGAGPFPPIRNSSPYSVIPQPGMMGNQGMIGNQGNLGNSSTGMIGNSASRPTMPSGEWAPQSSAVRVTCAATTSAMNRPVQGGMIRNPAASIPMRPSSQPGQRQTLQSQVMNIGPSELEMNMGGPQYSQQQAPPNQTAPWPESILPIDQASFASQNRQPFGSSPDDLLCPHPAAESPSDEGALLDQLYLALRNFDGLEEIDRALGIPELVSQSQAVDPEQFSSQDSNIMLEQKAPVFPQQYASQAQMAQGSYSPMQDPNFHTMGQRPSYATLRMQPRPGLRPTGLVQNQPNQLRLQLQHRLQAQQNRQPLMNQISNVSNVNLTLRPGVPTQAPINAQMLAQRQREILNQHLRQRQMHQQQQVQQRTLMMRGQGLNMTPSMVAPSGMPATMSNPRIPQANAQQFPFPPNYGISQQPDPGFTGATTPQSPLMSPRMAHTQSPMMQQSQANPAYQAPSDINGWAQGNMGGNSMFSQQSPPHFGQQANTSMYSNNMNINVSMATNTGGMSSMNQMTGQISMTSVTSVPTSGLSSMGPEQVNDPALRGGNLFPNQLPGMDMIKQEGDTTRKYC

[8] = target: Peroxisome proliferator-activated receptor gamma/Nuclear receptor coactivator 3 (Homo sapiens, UniProt P37231); assay: TR-FRET dose response biochemical High Throughput Screening assay for agonists of the steroid receptor coactivator 3 (SRC-3) recruitment by the peroxisome proliferator-activated receptor gamma (PPAR gamma): non-selective agonists. [Related pubchem assays: 1301 (Confirmation screen.), 1048 (Primary screen.)]; assay type: functional
[9] = target: Mitogen-activated protein kinase 10 (Homo sapiens, UniProt P53779); assay: Dose response biochemical screening assay for inhibitors of c-Jun N-Terminal Kinase 3 (JNK3). [Related pubchem assays: 746 ]
[10] = target: T2, Rac GTPase-activating protein 1 (Homo sapiens, UniProt Q9H0H5); assay: MgcRacGAP GTPase-activating activity inhibitors, confirmation, biochemical, ADP Hunter fluorescence, primary and confirmatory (AID 624330); assay type: functional
T2 sequence (Q9H0H5 whole entry): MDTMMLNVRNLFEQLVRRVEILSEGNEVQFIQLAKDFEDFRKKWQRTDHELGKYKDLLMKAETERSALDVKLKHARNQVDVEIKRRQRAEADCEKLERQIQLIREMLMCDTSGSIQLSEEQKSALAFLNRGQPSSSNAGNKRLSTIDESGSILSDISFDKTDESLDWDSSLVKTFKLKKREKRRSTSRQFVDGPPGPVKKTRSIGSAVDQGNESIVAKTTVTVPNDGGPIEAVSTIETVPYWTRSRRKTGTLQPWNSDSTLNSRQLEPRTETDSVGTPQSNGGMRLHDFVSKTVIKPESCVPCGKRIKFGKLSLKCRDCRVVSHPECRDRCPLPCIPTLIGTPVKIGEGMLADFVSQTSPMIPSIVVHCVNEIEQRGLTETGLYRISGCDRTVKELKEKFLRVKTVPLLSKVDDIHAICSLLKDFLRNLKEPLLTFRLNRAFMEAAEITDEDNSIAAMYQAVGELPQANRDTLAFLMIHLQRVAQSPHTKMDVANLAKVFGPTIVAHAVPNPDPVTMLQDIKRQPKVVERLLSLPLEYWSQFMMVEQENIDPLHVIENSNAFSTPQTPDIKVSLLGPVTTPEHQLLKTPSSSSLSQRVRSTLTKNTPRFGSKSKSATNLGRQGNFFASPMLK

[11] = target: T3, Aminopeptidase N (Plasmodium falciparum FcB1/Columbia, UniProt O96935); assay: P. falciparum M1AAP inhibitors, biochemical, fluorogenic H-Leu-NHMec substrate, 1536-well (AID 1445); design: species or system Plasmodium falciparum 3D7, 3D7
T3 sequence (O96935 whole entry): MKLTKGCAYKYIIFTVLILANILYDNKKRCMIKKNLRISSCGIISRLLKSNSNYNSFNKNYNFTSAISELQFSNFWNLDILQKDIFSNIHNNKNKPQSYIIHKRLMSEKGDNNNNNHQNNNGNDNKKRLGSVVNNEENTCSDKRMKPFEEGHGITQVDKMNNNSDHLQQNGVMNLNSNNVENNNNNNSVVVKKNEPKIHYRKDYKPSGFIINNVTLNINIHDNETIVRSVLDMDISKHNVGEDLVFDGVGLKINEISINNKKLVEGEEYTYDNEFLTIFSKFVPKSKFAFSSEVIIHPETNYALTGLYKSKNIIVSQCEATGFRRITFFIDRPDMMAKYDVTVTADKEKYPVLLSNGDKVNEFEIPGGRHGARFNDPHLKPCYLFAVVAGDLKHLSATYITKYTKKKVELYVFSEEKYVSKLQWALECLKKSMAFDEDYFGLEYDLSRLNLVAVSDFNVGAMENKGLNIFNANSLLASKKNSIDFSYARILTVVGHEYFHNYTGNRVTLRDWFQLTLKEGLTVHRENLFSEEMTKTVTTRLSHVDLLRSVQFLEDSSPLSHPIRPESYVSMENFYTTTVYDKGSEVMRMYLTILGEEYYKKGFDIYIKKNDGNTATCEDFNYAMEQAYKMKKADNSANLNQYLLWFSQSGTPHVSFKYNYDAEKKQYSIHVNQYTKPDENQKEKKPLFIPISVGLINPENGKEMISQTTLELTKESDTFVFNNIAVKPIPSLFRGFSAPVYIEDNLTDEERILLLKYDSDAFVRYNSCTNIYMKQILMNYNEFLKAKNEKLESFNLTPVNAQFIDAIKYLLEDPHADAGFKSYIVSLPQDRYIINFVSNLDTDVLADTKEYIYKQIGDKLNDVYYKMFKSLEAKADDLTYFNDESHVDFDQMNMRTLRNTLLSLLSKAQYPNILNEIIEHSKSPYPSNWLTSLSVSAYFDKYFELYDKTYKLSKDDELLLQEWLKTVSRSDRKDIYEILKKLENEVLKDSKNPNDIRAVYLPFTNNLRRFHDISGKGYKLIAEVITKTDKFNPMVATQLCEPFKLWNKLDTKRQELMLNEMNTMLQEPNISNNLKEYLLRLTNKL

[12] = target: T4, Estrogen receptor beta (Homo sapiens, UniProt Q92731);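 further: recombinant ER-beta bound to coactivator SRC1 peptide in presence of estradiol agonist; inhibitors block coactivator peptide binding and lower the FRET signal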
T4 sequence (Q92731 whole entry, the tested form may be a part): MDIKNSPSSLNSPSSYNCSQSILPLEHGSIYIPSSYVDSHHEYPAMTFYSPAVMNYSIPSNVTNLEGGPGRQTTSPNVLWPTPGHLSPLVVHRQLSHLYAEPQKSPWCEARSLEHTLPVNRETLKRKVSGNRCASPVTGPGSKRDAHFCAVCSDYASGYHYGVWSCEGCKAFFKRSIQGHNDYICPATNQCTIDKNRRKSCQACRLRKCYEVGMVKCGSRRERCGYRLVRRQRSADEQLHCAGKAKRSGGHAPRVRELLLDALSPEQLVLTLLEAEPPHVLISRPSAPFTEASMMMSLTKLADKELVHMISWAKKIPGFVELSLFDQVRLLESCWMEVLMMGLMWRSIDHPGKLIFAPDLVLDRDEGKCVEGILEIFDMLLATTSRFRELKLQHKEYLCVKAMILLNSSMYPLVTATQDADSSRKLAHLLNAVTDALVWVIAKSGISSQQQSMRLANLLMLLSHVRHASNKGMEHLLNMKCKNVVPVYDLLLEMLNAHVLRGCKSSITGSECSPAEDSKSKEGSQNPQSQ

[13] = target: T5, Carboxy-terminal domain RNA polymerase II polypeptide A small phosphatase 1 (Homo sapiens, UniProt Q9GZU7); assay: inhibitors of CTDSP1, concentration-response testing, biochemical assay, absorbance-based, actives from ultra-high-throughput screening (AID 540297); assay type: functional
T5 sequence (Q9GZU7 whole entry): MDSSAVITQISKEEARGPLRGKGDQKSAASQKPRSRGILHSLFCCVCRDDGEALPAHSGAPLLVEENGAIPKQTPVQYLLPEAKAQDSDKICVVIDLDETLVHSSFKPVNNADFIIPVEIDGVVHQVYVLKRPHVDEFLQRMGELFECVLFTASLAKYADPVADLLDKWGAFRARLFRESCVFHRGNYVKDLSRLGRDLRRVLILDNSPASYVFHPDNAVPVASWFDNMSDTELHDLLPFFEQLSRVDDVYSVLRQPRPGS

[14] = target: T4, Estrogen receptor beta; assay: ERβ–SRC-3 coactivator interaction inhibitors, confirmation, orthogonal assay, biochemical, ELISA, streptavidin-HRP readout (AID 1060)
[15] = test system: H4; assay: Luminescence Cell-Based Dose Response HTS to Identify Activators of 5'UTR Stem-Loop Driven Prion Protein mRNA Translation in H4 Neuroglioblastoma Cells. [Related pubchem assays: 1829 (Project Summary), 1814 (Primary HTS)]; assay type: functional; conditions: Homo sapiens
[16] = cytotoxicity in HPDE-C7 cells, cell-based, fluorescence, HTS (AID 430); assay type: functional; conditions: Homo sapiens
[17] = Luminescence Cell-Based Dose Response HTS to Identify Activators of Luciferase Translation or Activity in H4 […] Cells. [Related pubchem assays: 1829 (Project Summary), 1814 (Primary HTS)]; assay type: functional
[18] = cytotoxicity in KRAS-transformed pancreatic duct cells, primary screen, cell-based, fluorescence, HTS (AID 431); assay type: functional; conditions: Homo sapiens;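 further: cell line used: HPDE-C7K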
[19] = Luminescence Cell-Based Dose Confirmation HTS to Identify Activators of 5'UTR Stem-Loop Driven Alpha-Synuclein mRNA Translation in H4 Neuroglioblastoma Cells. [Related pubchem assays: 1829 (Project Summary), 1814 (Primary HTS)]; assay type: functional
[20] = target: Genome polyprotein (dengue virus type 2, UniProt P29990); assay: Dengue-2 NS5 methyltransferase inhibitors, primary screen, biochemical, confirmation dose response (AID 588689); assay type: functional

T1 sequence (P98170 whole entry): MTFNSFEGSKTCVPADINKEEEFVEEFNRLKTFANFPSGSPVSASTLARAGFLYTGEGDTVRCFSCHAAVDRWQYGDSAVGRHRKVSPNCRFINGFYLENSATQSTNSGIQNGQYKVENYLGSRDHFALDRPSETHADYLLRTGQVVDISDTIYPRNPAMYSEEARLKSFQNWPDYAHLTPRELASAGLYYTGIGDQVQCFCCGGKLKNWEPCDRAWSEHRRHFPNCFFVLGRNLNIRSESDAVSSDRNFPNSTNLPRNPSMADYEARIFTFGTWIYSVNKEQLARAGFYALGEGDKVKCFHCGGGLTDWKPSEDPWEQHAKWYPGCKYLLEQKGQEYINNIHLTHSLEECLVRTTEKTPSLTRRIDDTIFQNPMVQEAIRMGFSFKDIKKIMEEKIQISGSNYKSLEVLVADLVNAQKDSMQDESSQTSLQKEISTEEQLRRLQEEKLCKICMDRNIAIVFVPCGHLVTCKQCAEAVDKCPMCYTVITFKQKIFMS

Structure (SMILES): COc1ccc(S(=O)(=O)CCC(=O)NC2CCCCC2)cc1
- IC50 [1]: > 100 µM (not active)
- IC50 [2]: > 100 µM (inactive)

Structure (SMILES): COC(=O)/C=C/C(=O)N1CCN(c2ccccc2)CC1
- IC50 [1]: > 100 µM (not active)
- IC50 [2]: > 100 µM (inactive)

Structure (SMILES): O=C(NC(Cc1ccc(I)cc1)C(=O)O)c1ccc(I)cc1 (stereo not drawn)
- GI50 [3]: 38 µM (inactive)
- GI50 [4]: > 100 µM (inactive)
- GI50 [5]: 41.4 µM (inactive)

Structure (SMILES): CC(=O)CSc1ncnc2c1oc1ccccc12
- EC50 [6]: > 79.4 µM (inactive)
- EC50 [7]: > 26.5 µM (not active)
- EC50 [8]: > 79.4 µM (not active)

Structure (SMILES): CC(NC(=O)C(C)NC(=O)C(N)CCP(C)(=O)O)C(=O)O (stereo not drawn)
- GI50 [3]: > 100 µM (inactive)
- GI50 [4]: > 100 µM (inactive)
- GI50 [5]: > 31.6 µM (inactive)

Structure (SMILES): CN(Cc1ccccc1)C(=O)CSc1cc(=O)n(C)c2ccccc12
- EC50 [6]: > 79.4 µM (inactive)
- EC50 [7]: > 79.4 µM (not active)
- EC50 [8]: > 79.4 µM (not active)

Structure (SMILES): COc1ccccc1Cc1nc(-c2ccccc2)nn(C2OC(COC(C)=O)C(OC(C)=O)C(OC(C)=O)C2OC(C)=O)c1=S (stereo not drawn)
- GI50 [3]: 19.6 µM (inactive)
- GI50 [4]: 9.95 µM (inactive)
- GI50 [5]: 21.9 µM (inactive)

Structure (SMILES): CCOC(=O)c1c(C)nsc1S
- IC50 [9]: 30.5 µM (not active)
- EC50 [6]: > 79.4 µM (inactive)
- EC50 [7]: > 26.5 µM (not active)
- EC50 [8]: > 79.4 µM (not active)
- IC50 [10]: 56.6 µM (active)

Structure (SMILES): COc1ccc(/C=C2\CCNC2=O)cc1
- GI50 [3]: 82.4 µM (inactive)
- GI50 [4]: > 100 µM (inactive)
- GI50 [5]: > 100 µM (inactive)

Structure (SMILES): CCCc1nc(SCC(=O)Nc2ccc(S(=O)(=O)N(C)C)cc2)c2ccccc2n1
- IC50 [1]: > 100 µM (not active)
- IC50 [2]: > 100 µM (inactive)

Structure (SMILES): C=CCn1c(=O)/c(=C/c2ccc(O)cc2)s/c1=C(/C#N)c1nnc2n1CCCCC2
- IC50 [10]: 58.7 µM (active)
- IC50 [11]: 51.1 µM (active)

Structure (SMILES): c1ccc(N=Nc2cn[nH]c2-c2ccco2)cc1
- IC50 [1]: > 100 µM (not active)
- IC50 [2]: > 100 µM (inactive)

Structure (SMILES): COc1cccc(C2CC(c3c(O)nc4ccc(Cl)cc4c3-c3ccccc3)=NN2S(C)(=O)=O)c1OC (stereo not drawn)
- IC50 [11]: 78.2 µM (active)

Structure (SMILES): c1ccc2[nH]c(CSc3ncnc4c3oc3ccccc34)nc2c1
- IC50 [9]: > 93.1 µM (not active)
- EC50 [6]: 9.02 µM (active)
- EC50 [7]: 5.6 µM (active)
- EC50 [8]: > 79.4 µM (not active)

Structure (SMILES): O=C(COC(=O)c1ccccc1)NCc1ccco1
- IC50 [12]: 5.54 µM (active)
- IC50 [13]: 11.1 µM (active)
- IC50 [14]: 0.351 µM (not active)

Structure (SMILES): O=C(C1CC(c2ccc(F)cc2)=NO1)N1CCc2ccccc2C1 (stereo not drawn)
- IC50 [1]: > 100 µM (not active)
- IC50 [2]: > 100 µM (inactive)

Structure (SMILES): N#CC1=C(N)NC(SCc2ccc(F)cc2)=C(C#N)C12CCCCC2
- EC50 [15]: > 120 µM (not active)
- EC50 [16]: 10.4 µM (active)
- EC50 [17]: > 120 µM (not active)
- EC50 [18]: 9.03 µM (active)
- EC50 [19]: > 120 µM (not active)

Structure (SMILES): CCN1CCN(CCCNC(=O)Cn2cc3c(n2)CCCC3)CC1
- IC50 [1]: > 100 µM (not active)
- IC50 [2]: > 100 µM (inactive)

Structure (SMILES): O=C(NNC(=O)c1ccc(O)cc1O)c1ccc(Cl)cc1
- IC50 [11]: 58.1 µM (active)

Structure (SMILES): CC1C(=O)C(C)C(c2cccs2)N(N=O)C1c1cccs1 (stereo not drawn)
- GI50 [3]: 36 µM (inactive)
- GI50 [4]: > 100 µM (inactive)
- GI50 [5]: 39.4 µM (inactive)

Structure (SMILES): O=C(O)c1cccc2c1C(=O)c1ccc(-c3ccc(F)cc3OCc3ccccc3)cc1S2(=O)=O
- IC50 [20]: 50.5 µM (active)

Structure (SMILES): CCCCOC(=O)CNc1nnc(S)nc1O
- EC50 [6]: 5 µM (active)
- EC50 [7]: 4.23 µM (active)
- EC50 [8]: 91.3 µM (not active)
